Experimental data published in ChEMBL document CHEMBL4325854, “Synthetic small molecules as anti-biofilm agents in the struggle against antibiotic resistance” (Eur J Med Chem, 2019).
pIC50: −log10 of the molar value.

Tests used:
Staphylococcus aureus [1] = experiment: Antibiofilm activity against methicillin-resistant Staphylococcus aureus; format: functional, organism-based
Enterococcus faecalis = experiment: Antibiofilm activity against Enterococcus faecalis; format: functional
Staphylococcus aureus [2] = experiment: Antibiofilm activity against Staphylococcus aureus ATCC 6538; format: functional, organism-based
Sortase A = molecular target: T1, Sortase A (Staphylococcus aureus, UniProt Q9S446); experiment: Inhibition of Staphylococcus aureus SrtA
T1 sequence (Q9S446 whole entry): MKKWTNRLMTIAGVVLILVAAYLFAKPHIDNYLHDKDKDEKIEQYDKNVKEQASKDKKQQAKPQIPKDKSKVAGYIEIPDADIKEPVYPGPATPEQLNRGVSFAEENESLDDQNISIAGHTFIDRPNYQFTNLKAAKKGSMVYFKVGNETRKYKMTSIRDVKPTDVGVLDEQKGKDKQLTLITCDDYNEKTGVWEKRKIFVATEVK

Staphylococcus aureus [3] = experiment: Antibiofilm activity against Staphylococcus aureus ATCC 29213 at 6.2 ug/ml relative to control; format: functional
[4] = system: Staphylococcus epidermidis; experiment: Antibiofilm activity against Staphylococcus epidermidis at 25 ug/ml relative to control; format: functional
Staphylococcus aureus [5] = experiment: Antibiofilm activity against Staphylococcus aureus ATCC 29213 at 25 ug/ml relative to control; format: functional
[6] = system: Staphylococcus epidermidis; experiment: Antibiofilm activity against Staphylococcus epidermidis; format: functional
Enterococcus = experiment: Antibiofilm activity against vancomycin-resistant Enterococcus; format: functional
Staphylococcus aureus [7] = experiment: Antibiofilm activity against methicillin-resistant Staphylococcus aureus BAA-1707; format: functional
Staphylococcus aureus [8] = experiment: Antibiofilm activity against methicillin-resistant Staphylococcus aureus isolate 2; format: functional
[9] = molecular target: Fucose-binding lectin PA-IIL (Pseudomonas aeruginosa (strain ATCC 15692 / DSM 22644 / CIP 104116 / JCM14847 / LMG 12228 / 1C / PRS 101 / PAO1), UniProt Q9HYN5); experiment: Inhibition of N-(Fluorescein-5-yl)-N'-(alpha-L-fucopyranosyl ethylen)thiocarbamide binding to Pseudomonas aeruginosa PA14 LecB after 22 to 24 hrs by fluorescence polarization assay
Vibrio cholerae [10] = experiment: Antibiofilm activity against Vibrio cholerae assessed as inhibition of biofilm dispersion; format: functional, organism-based
Vibrio cholerae [11] = experiment: Antibiofilm activity against Vibrio cholerae; format: functional, organism-based
Staphylococcus aureus [12] = experiment: Antibiofilm activity against methicillin-resistant Staphylococcus aureus ATCC BAA-44; format: functional, organism-based
Staphylococcus aureus [13] = experiment: Antibiofilm activity against methicillin-resistant Staphylococcus aureus ATCC BAA-44 preformed biofilms assessed as reduction in biofilm dispersion; format: functional, organism-based
Enterococcus faecium = experiment: Antibiofilm activity against Enterococcus faecium; format: functional

Sequence of Fucose-binding lectin PA-IIL (Q9HYN5 1-115): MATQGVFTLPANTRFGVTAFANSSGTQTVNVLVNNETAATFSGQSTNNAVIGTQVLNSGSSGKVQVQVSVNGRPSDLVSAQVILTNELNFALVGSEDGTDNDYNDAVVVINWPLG

CCCCCCCCCCCC[N+](C)(C)CCNCC[N+](C)(C)CCCCCCCCCCCC
MBEC (Staphylococcus aureus [1]): 50 µM | MBEC (Enterococcus faecalis): 25 µM

CCOC(=O)/C(=N/Nc1c(F)cccc1F)C(=O)c1cc(C)nn1CC
pIC50 (Staphylococcus aureus [2]): 6.05 | pIC50 (Sortase A): 4.12

Cc1nn(C)c([N-]C(=O)c2ccc([N+](=O)[O-])cc2)c1[N+]#N
Activity (Staphylococcus aureus [3]): 86.5% | Activity [4]: 69 - 96% | Activity (Staphylococcus aureus [5]): 69 - 96%

Oc1c(Br)cc(Br)c2ccc(CNc3ccc(F)cc3)nc12
MBEC [6]: 5.9 µM | MBEC (Enterococcus): 1 µM | MBEC (Staphylococcus aureus [7]): 7.8 µM | MBEC (Staphylococcus aureus [8]): 93.8 µM

Cc1cc(C)c(S(=O)(=O)NC[C@H]2O[C@@H](C)[C@@H](O)[C@@H](O)[C@@H]2O)c(C)c1
pIC50 [9]: 6.47

O[C@H](c1cc(-c2cccc(S(F)(F)(F)(F)F)c2)nc2ccccc12)[C@@H]1CCCN1
DC50 (Vibrio cholerae [10]): 7.4 µM | pIC50 (Vibrio cholerae [11]): 5.36

CCCCC(Cl)(Cl)C1NC(=O)/C(=C/c2ccc(C(F)(F)F)cc2)O1 (stereo not drawn)
pIC50 (Staphylococcus aureus [12]): 6.11 | pIC50 (Staphylococcus aureus [13]): 5.33

CCc1cccc2nc3c(O)c(Br)cc(Br)c3nc12
MBEC (Enterococcus faecium): 0.59 µM | MBEC [6]: 2.35 µM
